Consider 13 molecules from US4806564A, “Antihypercholesterolemic beta-lactones” (Merck & Co., Inc., priority 1987, dated 1989).

The experiment has as its target T1, HMG-CoA synthase (Rattus norvegicus, UniProt P17425).
T1 construct: The HMG-CoA synthase was eluted from the column with 0.1 M phosphate buffer (pH 7.2); from tissue; host or cells: liver of male Charles River CD rats
T1 sequence (P17425 1-520): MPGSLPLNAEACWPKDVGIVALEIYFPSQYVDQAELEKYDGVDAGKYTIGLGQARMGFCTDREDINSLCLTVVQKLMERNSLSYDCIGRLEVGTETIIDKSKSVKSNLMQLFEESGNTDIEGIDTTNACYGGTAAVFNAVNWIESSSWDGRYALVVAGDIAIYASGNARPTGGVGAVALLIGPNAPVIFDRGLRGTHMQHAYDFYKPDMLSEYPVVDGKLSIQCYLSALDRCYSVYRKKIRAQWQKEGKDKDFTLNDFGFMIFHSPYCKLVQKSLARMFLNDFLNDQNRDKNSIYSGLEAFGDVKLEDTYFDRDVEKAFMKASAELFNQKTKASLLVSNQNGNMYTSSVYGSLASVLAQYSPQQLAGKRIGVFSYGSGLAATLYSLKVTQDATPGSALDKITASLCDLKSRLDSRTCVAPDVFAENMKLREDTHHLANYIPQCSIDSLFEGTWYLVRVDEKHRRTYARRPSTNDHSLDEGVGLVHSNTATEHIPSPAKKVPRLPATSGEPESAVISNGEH
Kind of experiment: HMG-CoA Synthase Inhibition Assay. Type of experiment: biochemical. The settings on record: in vitro; HMG-CoA synthase purified from rat liver; 5 min preincubation with test compound at 30°, then 10 min with acetoacetyl-CoA and [14C]-acetyl-CoA. The method, then:
The intrinsic HMG-CoA synthase inhibition activity of the compounds of this invention is measured by the standard in vitro protocol described below:
The livers from male Charles River CD rats (225-350 g) were homogenized in 0.25 M sucrose which was adjusted with phenylmethylsulfonylfluoride (PMSF) and N-p-tosyl-1-lysine chloromethyl ketone (TLCK) so that the final concentration of each was […], respectively. The homogenate was centrifuged at 15,000× g for 20 minutes, the supernatant filtered through a fine nylon screen to remove most of the fat layer and recentrifuged at 100,000× g for 1 hour. This supernatant was removed and 1 M potassium phosphate, dithiothreitol (DTT) and ethylene glycol-bis(β-aminoethyl ether)-N,N,N',N'-tetracetic acid (EGTA) added to give a final concentration of 0.1 M (pH 7.2), 0.5 mM and 0.1 mM, respectively. Solid ammonium sulfate was added to 50% saturation to the protein solution, it was centrifuged at 15,000× g and the supernatant discarded. This precipitated protein could be stored at -70° C. for at least one month with very little loss of activity. The ammonium sulfate precipitate was dissolved in an minimal mount of 0.06 M potassium phosphate buffer (pH 7.2) containing 0.5 mM dithiothreitol and 0.1 mM EGTA (referred to as 0.06 M phosphate buffer) and dialyzed overnight against 2 liters of the same buffer to remove the ammonium sulfate and to inactivate HMG-CoA lyase [Clinkenbeard, et al., J. Biol. Chem. 250, 3108-3116(1975)].
The dialyzed extract was added to a column of DEAE-52 (Whatman) which had been equilibrated with 0.06 M phosphate buffer (10 mg of protein to 1 ml bed volume of the resin). The DEAE-cellulose was eluted with 0.06 M phosphate buffer until the optical density at 280 nm was essentially zero. This fraction contained the β-ketoacetyl-CoA thiolase activity. The HMG-CoA synthase was eluted from the column with 0.1 M phosphate buffer (pH 7.2) containing 0.5 mM DTT and 0.1 mM EGTA, and was virtually free of all thiolase activity. The protein was precipitated by the addition of ammonium sulfate to give 50% saturation. This solution was stirred for 10 minutes at 4° C. and the precipitate collected by centrifugation at 15,000 rpm for 10 minutes. The supernatant was discarded and the precipitate dissolved in a minimum of 0.06 M phosphate buffer, pH 7.2 (about 10 ml) and the enzyme stored at -80° C.
Enzyme protein (ca. 24 mg) was added to a solution containing […] (pH 8.0), 11.7 μM MgCl2, 1.17 μM Ethylenediaminetetraacetic acid (EDTA), 0.58 μM dithiothreitol, and the indicated concentrations of the test compound (added as a 2 mg/ml solution in dimethylsulfoxide). The incubation took place in a volume of 0.085 ml at 30° in a shaking water bath. After 5 minutes, […] of a solution containing acetoacetyl-CoA and 0.1 μCi of 1-[^14 C]-acetyl-CoA was added to give a final concentrations of 0.1 and 0.4 μM, respectively. The incubation was continued for 10 more minutes and the reaction stopped by the addition of […] of the assay mixture to 0.2 ml of 6N HCl in a glass scintillation vial. The vial was heated for 1 hour at 120° after which time 0.2 ml more of 6N HCl was again added to each vial and the heating continued for another hour. Following this, 1.0 ml of 0.9% saline was added to each vial and finally 10 ml of scintillation liquid. Radioactivity was determined in a Packard Tri-Carb liquid scintillation counter.
Percent inhibition is calculated by the formula: [formula]
IC50 values were determined by plotting the log of the concentration of the test compound verses the percentage inhibition and fitting a straight line to the resulting data by using the least squares method.

One may read the IC50 as the concentration needed to halve the response being measured. Read a high IC50 as weaker potency in that assay.

In turn, `C[C@H]1C(=O)O[C@@H]1CCCCCc1ccccc1` (relative stereo) [(CH2)5Ph, E-3-Methyl-4-(5-phenylpentyl)-2-oxetanone] yielded an IC50 of 1.4 µM. In turn, `C[C@H]1C(=O)O[C@@H]1CCCCCCc1ccccc1` (relative stereo) [(CH2)6 Ph, E-3-Methyl-4-(6-phenylhexyl)-2-oxetanone] returned an IC50 of 1.5 µM. Consider `C=CCCCCCCCC[C@@H]1OC(=O)[C@H]1C` (relative stereo) [(CH2)8 CHCH2, E-3-Methyl-4-(9-decenyl)-2-oxetanone], for which the IC50 was 1.6 µM. Molecule `C[C@H]1C(=O)O[C@@H]1CCCCCCCCCc1ccccc1` (relative stereo) [(CH2)9 Ph, E-3-methyl-4-(9-phenylnonyl)-2-oxetanone] yielded an IC50 of 1.2 µM. For `CCCCCCCCCC[C@@H]1OC(=O)[C@H]1C` (relative stereo) [(CH2)9CH3, E-3-Methyl-4-decyl-2-oxetanone] the value was 0.25 µM; for `CC(CC(C)CCCCC1OC(=O)C1CO)=NNc1ccc(Br)cc1` (stereo not shown) [8-(3-hydroxymethyl-4-oxo-2-oxetanyl)-4-methyl-2-(4-bromophenylhydrazono)-octane], 0.8 µM. The molecule `CC(=O)CC(C)CCCCC1OC(=O)C1CO` (stereo not shown) [8-(3-hydroxymethyl-4-oxo-2-oxetanyl)-4-methyl-2-octanone] displayed an IC50 of 1.6 µM. Molecule `COCC1C(=O)OC1CCCCC(C)CC(C)OC` (stereo not shown) [8-(3-methoxymethyl-4-oxo-2-oxetanyl)-4-methyl-2-methoxyoctane] showed an IC50 of 5.5 µM. In turn, `COCC1C(=O)OC1CCCCC(C)CC(C)=O` (stereo not shown) [8-(3-methoxymethyl-4-oxo-2-oxetanyl)-4-methyl-2-octanone] had an IC50 of 1.7 µM. `CC(=CC(=O)O)C1OC1(C)CC(C)CCCCC1OC(=O)C1CO` (stereo not shown) [11-(3-hydroxymethyl-4-oxo-2-oxetanyl)-4,5-oxiranyl-3,5,7-trimethyl-2-undecenoic acid] came in with an IC50 of 0.1 µM.

`COC(=O)C=C(C)C(O)C(C)(O)CC(C)CCCCC1OC(=O)C1CO` (stereo not shown) [methyl 11-(3-hydroxymethyl-4-oxo-2-oxetanyl)-4,5-dihydroxy-3,5,7-trimethyl-2-undecenoate]: the half-maximal inhibitory concentration (IC50) worked out at 1.1 µM.

Turning to `COC(=O)C=C(C)C1OC1(C)CC(C)CCCCC1OC(=O)C1CO` (stereo not shown) [methyl 11-(3-hydroxymethyl-4-oxo-2-oxetanyl)-4,5-oxiranyl-3,5,7-trimethyl-2-undecenoate], the IC50 worked out at 0.08 µM. With `COCC1C(=O)OC1CCCCC(C)CC(C)(O)C(O)C(C)=CC(=O)OC` (stereo not shown) [methyl 11-(3-methoxymethyl-4-oxo-2-oxetanyl)-4,5-dihydroxy-3,5,7-trimethyl-2-undecenoate], the IC50 turned out to be 1.9 µM.
